According to BigSolDB 2.1:

Cc1ccc(C(=O)O)cc1
solubility (mole fraction)
Settings	in acetic acid	in methanol
283.15 K	0.043	0.02
288.15 K	0.048	0.021
293.15 K	0.053	0.023
298.15 K	0.059	0.027
303.15 K	0.064	0.029
308.15 K	0.07	0.033
313.15 K	0.077	0.038
318.15 K	0.085	0.041
323.15 K	0.095	0.047
328.15 K	0.103	0.054
333.15 K	0.113	0.061
